Experimental data published in PubChem BioAssay (NCI).
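Exposure lasted 48 hours, with cells grown in 96-well plates and compounds tested at five concentrations. TGI is the concentration that stops growth completely.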

How the values were obtained:
Test in all cases: NCI tumour cell line growth inhibition, 48 h
786-0 renal = test system: 786-0 renal
A498 renal = test system: A498 renal
A549 NSCLC = test system: A549 NSCLC
CCRF-CEM leukemia = test system: CCRF-CEM leukemia
COLO 205 colon = test system: COLO 205 colon
DLD-1 colon = test system: DLD-1 colon
EKVX NSCLC = test system: EKVX NSCLC
HCC-2998 colon = test system: HCC-2998 colon
HCT-116 colon = test system: HCT-116 colon
HL-60(TB) leukemia = test system: HL-60(TB) leukemia
HOP-62 NSCLC = test system: HOP-62 NSCLC
HOP-92 NSCLC = test system: HOP-92 NSCLC
HT29 colon = test system: HT29 colon
IGROV1 ovarian = test system: IGROV1 ovarian
K-562 leukemia = test system: K-562 leukemia
KM12 colon = test system: KM12 colon
KM20L2 colon = test system: KM20L2 colon
LOX IMVI melanoma = test system: LOX IMVI melanoma
LXFL 529 NSCLC = test system: LXFL 529 NSCLC
M14 melanoma = test system: M14 melanoma
M19-MEL melanoma = test system: M19-MEL melanoma
MALME-3M melanoma = test system: MALME-3M melanoma
MOLT-4 leukemia = test system: MOLT-4 leukemia
NCI-H226 lung = test system: NCI-H226 lung
NCI-H23 lung = test system: NCI-H23 lung
NCI-H460 lung = test system: NCI-H460 lung
NCI-H522 lung = test system: NCI-H522 lung
OVCAR-3 ovarian = test system: OVCAR-3 ovarian
OVCAR-5 ovarian = test system: OVCAR-5 ovarian
OVCAR-8 ovarian = test system: OVCAR-8 ovarian
RPMI-8226 leukemia = test system: RPMI-8226 leukemia
RXF 393 renal = test system: RXF 393 renal
RXF-631 renal = test system: RXF-631 renal
SF-268 CNS = test system: SF-268 CNS
SF-295 CNS = test system: SF-295 CNS
SF-539 CNS = test system: SF-539 CNS
SK-MEL-2 melanoma = test system: SK-MEL-2 melanoma
SK-MEL-28 melanoma = test system: SK-MEL-28 melanoma
SK-MEL-5 melanoma = test system: SK-MEL-5 melanoma
SK-OV-3 ovarian = test system: SK-OV-3 ovarian
SNB-75 CNS = test system: SNB-75 CNS
SNB-78 CNS = test system: SNB-78 CNS
SW-620 colon = test system: SW-620 colon
TK-10 renal = test system: TK-10 renal
U251 CNS = test system: U251 CNS
UACC-257 melanoma = test system: UACC-257 melanoma
UACC-62 melanoma = test system: UACC-62 melanoma
UO-31 renal = test system: UO-31 renal
XF 498 CNS = test system: XF 498 CNS
ACHN renal = test system: ACHN renal
BT-549 breast = test system: BT-549 breast
CAKI-1 renal = test system: CAKI-1 renal
DMS 273 small cell lung = test system: DMS 273 small cell lung
DU-145 prostate = test system: DU-145 prostate
HCT-15 colon = test system: HCT-15 colon
HOP-18 NSCLC = test system: HOP-18 NSCLC
HS 578T breast = test system: HS 578T breast
MCF7 breast = test system: MCF7 breast
MDA-MB-231 breast = test system: MDA-MB-231 breast
MDA-MB-435 = test system: MDA-MB-435
MDA-N = test system: MDA-N
NCI/ADR-RES ovarian = test system: NCI/ADR-RES ovarian
OVCAR-4 ovarian = test system: OVCAR-4 ovarian
P388 leukemia = test system: P388 leukemia
P388/ADR leukemia = test system: P388/ADR leukemia
PC-3 prostate = test system: PC-3 prostate
SN12C renal = test system: SN12C renal
SN12K1 renal = test system: SN12K1 renal
SNB-19 CNS = test system: SNB-19 CNS
SR leukemia = test system: SR leukemia
T-47D breast = test system: T-47D breast

C/C(CC(=O)Nc1cccc(Cl)c1C)=N\NC(N)=S
TGI (786-0 renal): > 100 µM
TGI (A498 renal): > 100 µM
TGI (A549 NSCLC): > 100 µM
TGI (CCRF-CEM leukemia): > 100 µM
TGI (COLO 205 colon): > 100 µM
TGI (DLD-1 colon): > 100 µM
TGI (EKVX NSCLC): > 100 µM
TGI (HCC-2998 colon): > 100 µM
TGI (HCT-116 colon): > 100 µM
TGI (HL-60(TB) leukemia): > 100 µM
TGI (HOP-62 NSCLC): > 100 µM
TGI (HOP-92 NSCLC): > 100 µM
TGI (HT29 colon): > 100 µM
TGI (IGROV1 ovarian): > 100 µM
TGI (K-562 leukemia): > 100 µM
TGI (KM12 colon): > 100 µM
TGI (KM20L2 colon): > 100 µM
TGI (LOX IMVI melanoma): > 100 µM
TGI (LXFL 529 NSCLC): > 100 µM
TGI (M14 melanoma): > 100 µM
TGI (M19-MEL melanoma): > 100 µM
TGI (MALME-3M melanoma): > 100 µM
TGI (MOLT-4 leukemia): > 100 µM
TGI (NCI-H226 lung): > 100 µM
TGI (NCI-H23 lung): > 100 µM
TGI (NCI-H460 lung): > 100 µM
TGI (NCI-H522 lung): > 100 µM
TGI (OVCAR-3 ovarian): > 100 µM
TGI (OVCAR-5 ovarian): > 100 µM
TGI (OVCAR-8 ovarian): > 100 µM
TGI (RPMI-8226 leukemia): > 100 µM
TGI (RXF 393 renal): > 100 µM
TGI (RXF-631 renal): > 100 µM
TGI (SF-268 CNS): > 100 µM
TGI (SF-295 CNS): > 100 µM
TGI (SF-539 CNS): > 100 µM
TGI (SK-MEL-2 melanoma): > 100 µM
TGI (SK-MEL-28 melanoma): > 100 µM
TGI (SK-MEL-5 melanoma): > 100 µM
TGI (SK-OV-3 ovarian): > 100 µM
TGI (SNB-75 CNS): > 100 µM
TGI (SNB-78 CNS): > 100 µM
TGI (SW-620 colon): > 100 µM
TGI (TK-10 renal): > 100 µM
TGI (U251 CNS): > 100 µM
TGI (UACC-257 melanoma): > 100 µM
TGI (UACC-62 melanoma): > 100 µM
TGI (UO-31 renal): > 100 µM
TGI (XF 498 CNS): > 100 µM

O=S(=O)(O)O
TGI (786-0 renal): 1490 µM
TGI (A498 renal): 1780 µM
TGI (A549 NSCLC): 1870 µM
TGI (ACHN renal): 1550 µM
TGI (BT-549 breast): 2680 µM
TGI (CAKI-1 renal): 1870 µM
TGI (CCRF-CEM leukemia): 684 µM
TGI (COLO 205 colon): 2210 µM
TGI (DLD-1 colon): > 3000 µM
TGI (DMS 273 small cell lung): 540 µM
TGI (DU-145 prostate): 1620 µM
TGI (EKVX NSCLC): 2470 µM
TGI (HCC-2998 colon): 2150 µM
TGI (HCT-116 colon): 914 µM
TGI (HCT-15 colon): 1820 µM
TGI (HL-60(TB) leukemia): 1300 µM
TGI (HOP-18 NSCLC): 1680 µM
TGI (HOP-62 NSCLC): 1070 µM
TGI (HOP-92 NSCLC): 2010 µM
TGI (HS 578T breast): 2240 µM
TGI (HT29 colon): 1450 µM
TGI (IGROV1 ovarian): 2170 µM
TGI (K-562 leukemia): 1230 µM
TGI (KM12 colon): 2150 µM
TGI (KM20L2 colon): 2280 µM
TGI (LOX IMVI melanoma): 542 µM
TGI (M14 melanoma): 1580 µM
TGI (MALME-3M melanoma): 2050 µM
TGI (MCF7 breast): 1410 µM
TGI (MDA-MB-231 breast): > 1900 µM
TGI (MDA-MB-435): 634 µM
TGI (MDA-N): 360 µM
TGI (MOLT-4 leukemia): 1680 µM
TGI (NCI-H226 lung): 2390 µM
TGI (NCI-H23 lung): 1580 µM
TGI (NCI-H460 lung): 1210 µM
TGI (NCI-H522 lung): 1770 µM
TGI (NCI/ADR-RES ovarian): 2360 µM
TGI (OVCAR-3 ovarian): 1770 µM
TGI (OVCAR-4 ovarian): 2080 µM
TGI (OVCAR-5 ovarian): 1700 µM
TGI (OVCAR-8 ovarian): 1830 µM
TGI (P388 leukemia): > 1820 µM
TGI (P388/ADR leukemia): > 3000 µM
TGI (PC-3 prostate): 1190 µM
TGI (RPMI-8226 leukemia): 2500 µM
TGI (RXF 393 renal): 1500 µM
TGI (SF-268 CNS): 1980 µM
TGI (SF-295 CNS): 2060 µM
TGI (SF-539 CNS): 1840 µM
TGI (SK-MEL-2 melanoma): 1450 µM
TGI (SK-MEL-28 melanoma): 1700 µM
TGI (SK-MEL-5 melanoma): 2200 µM
TGI (SK-OV-3 ovarian): 2650 µM
TGI (SN12C renal): 1450 µM
TGI (SN12K1 renal): 1380 µM
TGI (SNB-19 CNS): 2580 µM
TGI (SNB-75 CNS): 2290 µM
TGI (SNB-78 CNS): 2930 µM
TGI (SR leukemia): > 1810 µM
TGI (SW-620 colon): 1030 µM
TGI (T-47D breast): 1770 µM
TGI (TK-10 renal): 2160 µM
TGI (U251 CNS): 1480 µM
TGI (UACC-257 melanoma): 1990 µM
TGI (UACC-62 melanoma): 1940 µM
TGI (UO-31 renal): 1770 µM
